The conditions of series [1]: 298.15 K, 101.33 kPa, Liquid.
Series [2] can be described thus: refractive index (Na D-line) (dimensionless). The following applies: 298.15 K; 101.33 kPa; Liquid; Standard Abbe refractometry.

± gives the expanded uncertainty stated by the source.

Take `CN1CCN(C)C1=O` [1,3-dimethyl-2-imidazolidinone]: the mass density in series [1] (Vibrating tube method) was determined as 1052.23 ± 1.2 kg/m3. Also, the refractive index in series [2] worked out at 1.4713 ± 0.0008.
For the molecule `O` [water], in series [1], the electrical conductivity was 1.3e-05 ± 1e-06 S/m.
